Data published in US7560241B2, “Methods and compositions for modulating mitochondrial aldehyde dehydrogenase-2” (The Board of Trustees of the Leland Stanford Junior …, priority 2003, dated 2009).
“And” between values parts separate entries of the source, which are not always exact repeats. Equal entries are not always repeated. “Also recorded” adds a separate entry of the source. Where two headings read alike, the source gives them in different places.

What was measured:
AldDH2 = assay: aldehyde dehydrogenase enzymatic activity in homogenates of ex vivo Langendorff rat hearts (NADH at 340 nm, acetaldehyde substrate); type: biochemical; details: for rate of NADH accumulation (absorbance at 340 nm), FIG. 4: ethanol before ischemia vs I/R alone or normoxia, cyanamide in ethanol treated ischemic or normoxic samples; for inhibition of AldDH2: during ischemia reperfusion
Protocol: Ex vivo Langendorff preparation of rat hearts were used as a model to assess the damage incurred by no-flow ischemia and reperfusion injury. This is an experimental model that mimics the clinical situation of myocardial infarction in patients. Rat hearts were excised and cannulated on a Langendorff apparatus via the aorta. Retrograde perfusion was carried out using the standard oxygenated Kreb-Hensleit buffer maintained at 37° C. All hearts were stabilized by an initial 5- to 10-minute perfusion period followed by delivery of different cardioprotective agents or AldDH2 inhibitors for 10-30 minutes, depending on the reagent. […] Ischemia was then introduced by 25 minutes of no-flow followed by 60 minutes of reperfusion. The degree of ischemia/reperfusion damage was measured by two independent commonly accepted parameters. […] In another assay, creatine phosphate kinase activity was measured from reperfusate of each heart collected during reperfusion. […] Homogenates from each heart was also obtained from a separate section of the identical sample and analyzed for aldehyde dehydrogenase enzymatic activity. Enzymatic activity was determined by a standard spectrophotometric method described above using acetaldehyde as the substrate and NAD^+ as a cofactor. FIG. 2: An experimental protocol using an ex vivo Langendorff heart. Rat hearts were excised and cannulated on a Langendorff apparatus via aorta. Retrograde perfusion was carried out using the standard oxygenated Kreb-Hensleit buffer maintained at 37° C. […] Peptides used were a selective activator (εV1-7) or inhibitor (εV1-2) or epsilon protein kinase C (εPKC). Ischemia was then introduced by 25 minutes of no-flow followed by 60 minutes of reperfusion. […] FIG. 3: Formation of acetic acid from acetaldehyde by action of aldehyde dehydrogenase. Enzymatic activity of aldehyde dehydrogenase is determined by a standard photospectrometric method using acetaldehyde as a substrate. In this reaction, aldehyde dehydrogenase catalyzes the oxidation of acetaldehyde to acetic acid. Concomitantly, NAD^+ is reduced to NADH resulting in an increase in absorbance at 340 nm wavelength in a photospectrometer. The rate of NADH increase is proportional to the enzymatic activity of aldehyde dehydrogenase.

rat hearts = assay: ischemia/reperfusion damage in ex vivo Langendorff rat hearts, infarct size by TTC staining; details: for ischemic damage by TTC staining of heart sections: ischemia/reperfusion

SMILES: CCO [ethanol]
- increase in AldHD2 activity (AldDH2; as compared to ischemia/reperfusion control, ethanol 50 mM for 10 minutes, peptide 1 μM): 25%
- rate of NADH accumulation (absorbance at 340 nm), FIG. 4 (AldDH2): increase in the rate of absorbance
- ischemic damage by TTC staining of heart sections (rat hearts; compared to control heart): leads to cardioprotection

SMILES: O=[N+]([O-])OCC(CO[N+](=O)[O-])O[N+](=O)[O-] [Nitroglycerin, nitroglycerin]
- increase in infarct damage (rat hearts): 36% and 31%
- increase in ischemia/reperfusion damage as measured by infarct size (rat hearts): 29%

SMILES: N#CN [cyanamide]
- effect on induction of AldDH2 activity by ethanol or εPKC agonist peptide (AldDH2; co-treatment, ischemia/reperfusion): effect of induction is also greatly abolished
- inhibition of AldDH2 (AldDH2; cyanamide treatment in the absence of ethanol or peptide): 63%
- inhibition of AldDH2 (AldDH2; cyanamide treatment in the presence of ethanol): 64%
- inhibition of AldDH2 (AldDH2; cyanamide treatment in the presence of peptide): 74%
- rate of NADH accumulation (absorbance at 340 nm), FIG. 4 (AldDH2): reduction of NADH accumulation
- AldDH2 activity in normoxic heart samples (AldDH2; normoxic): inhibition of AldDH2 activity
- increase in ischemia/reperfusion damage as measured by infarct size (rat hearts; agent alone, compared to no treatment control): 49%
- increase in infarct damage (rat hearts; in samples treated with ethanol): 62%
- increase in infarct damage (rat hearts; in samples treated with εPKC agonist peptide): 56%
- ischemic damage by TTC staining of heart sections (rat hearts; compared to control heart): eliminates the protective effect of ethanol and leads to an even greater damage as compared to control
- cardiac damage under normoxic condition (rat hearts; normoxic, compared to control heart): does not produce any significantly greater damage than the control heart; also recorded: did not lead to any greater cardiac damage
